Measured values: ChEMBL document CHEMBL5346923, “Novel pyridinium cationic pleuromutilin analogues overcoming bacterial multidrug resistance” (Eur J Med Chem, 2023)
Activity calls are given as the source filed them. The calls are words filed in the database; no cut-off is given here.

Assays:
Cell membrane [1] = experiment: Disruption of membrane integrity in Staphylococcus aureus ATCC 29213 at 1 to 6 times of MIC by DAPI/propidium iodide staining based fluorescence microscopic analysis; type: subcellular
HepG2 = experiment: Cytotoxicity against human HepG2 cells assessed as reduction in cell viability at 7.5 to 1000 ug/ml incubated for 6 hrs by CCK-8 assay; type: toxicity, cell-based; conditions: hepg2, 6 h, dose 7.5-1000 µg/ml
Staphylococcus aureus [2] = experiment: Potency index, ratio of tiamulin MIC to compound […] for antibacterial activity against clinical isolate multi-drug resistant Staphylococcus aureus sal; type: functional
Staphylococcus aureus [3] = experiment: Antibacterial activity against methicillin-resistant Staphylococcus aureus ATCC 43300 assessed as reduction in log10 CFU at 3 times of MIC measured after 8 hrs by time-kill assay; type: functional
Cell membrane [4] = experiment: Disruption of membrane integrity in Staphylococcus aureus ATCC 29213 assessed as induction of cell membrane perforation at 1 to 4 ug/ml incubated for 60 mins by ONPG reagent based analysis; type: subcellular; conditions: dose 1-4 µg/ml
Escherichia coli = experiment: Antibacterial activity against clinical isolate Escherichia coli harbouring NDM-17 gene assessed as inhibition of bacterial growth measured after 24 hrs by MH broth based assay; type: functional
Staphylococcus aureus [5] = experiment: Antibacterial activity against Staphylococcus aureus ATCC 29213 assessed as induction of bacterial fragmentation at 1 times of MIC by SEM analysis; type: functional, organism-based
Staphylococcus aureus [6] = experiment: Antibacterial activity against multi-drug resistant Staphylococcus aureus sa1 infected in BABL/C mouse assessed as reduction in bacterial load in lungs at 40 mg/kg, ip measured after 2 days; type: functional; conditions: time 2 day
Staphylococcus aureus [7] = experiment: Antibacterial activity against Staphylococcus aureus ATCC 29213 assessed as inhibition of bacterial GFP expression at 1 to 4 times of MIC incubated for 1 hr by fluorescence microscopic analysis; type: functional, organism-based
Staphylococcus aureus [8] = experiment: Antibacterial activity against clinical isolate Staphylococcus aureus harbouring erm C gene assessed as inhibition of bacterial growth measured after 24 hrs by MH broth based assay; type: functional
Staphylococcus aureus [9] = experiment: Antibacterial activity against clinical isolate Staphylococcus aureus harbouring IsaA, cfr and erm A gene assessed as inhibition of bacterial growth measured after 24 hrs by MH broth based assay; type: functional
Enterococcus = experiment: Antibacterial activity against vancomycin-resistant Enterococcus ATCC 700221 assessed as inhibition of bacterial growth measured after 24 hrs by MH broth based assay; type: functional
Staphylococcus aureus [10] = experiment: Antibacterial activity against compound-resistant/methicillin-resistant Staphylococcus aureus assessed as inhibition of bacterial growth; type: functional
HEK293 = experiment: Cytotoxicity against HEK293 cells assessed as reduction in cell viability at 7.5 to 1000 ug/ml incubated for 6 hrs by CCK-8 assay; type: toxicity, cell-based; conditions: human, hek293, 6 h, dose 7.5-1000 µg/ml
Staphylococcus aureus [11] = experiment: Antibacterial activity against clinical isolate Staphylococcus aureus harbouring IsaE gene assessed as inhibition of bacterial growth measured after 24 hrs by MH broth based assay; type: functional
Staphylococcus aureus [12] = experiment: Antibacterial activity against methicillin-resistant Staphylococcus aureus […] assessed as post antibacterial effect by measuring time required for increase in log10 CFU/ml of bacteria at 2 times of MIC incubated for 1 hr by MH broth based assay; type: functional
Staphylococcus aureus [13] = experiment: Antibacterial activity against clinical isolate multi-drug resistant Staphylococcus aureus sal assessed as reduction in log10 CFU at 6 times of MIC measured after 8 hrs by time-kill assay; type: functional
Staphylococcus aureus [14] = experiment: Antibacterial activity against 4 times of MIC treated methicillin-resistant Staphylococcus aureus […] assessed as post-antibiotic sub-MIC effect by measuring time required for increase in log10 CFU/ml of bacteria at 0.25 to 0.5 times of MIC incubated for 1 hr by MH broth based assay; type: functional
Staphylococcus aureus [15] = experiment: Antibacterial activity against clinical isolate Staphylococcus aureus harbouring tet38 gene assessed as inhibition of bacterial growth measured after 24 hrs by MH broth based assay; type: functional
Staphylococcus aureus [16] = experiment: Antibacterial activity against multi-drug resistant Staphylococcus aureus sa1 infected in BABL/C mouse assessed as survival rate at 10 mg/kg, ip measured upto 7 days; type: functional; conditions: sa1, 168 h, time <= 7 day
[17] = tested on: Streptococcus hyovaginalis; experiment: Antibacterial activity against clinical isolate Streptococcus hyovaginalis harbouring IsaE and optrA gene assessed as inhibition of bacterial growth measured after 24 hrs by MH broth based assay; type: functional

With C=C[C@]1(C)C[C@@H](OC(=O)CSc2cc[n+](CCCCCCC)cc2)[C@]2(C)[C@H](C)CC[C@]3(CCC(=O)[C@H]32)[C@@H](C)[C@@H]1O.[I-] the Activity (Cell membrane [1]) was “Active”, the Activity (HepG2) was “Non-Toxic” and the Ratio (Staphylococcus aureus [2]) was 96. For the same compound, the Activity (Staphylococcus aureus [3]) was 2 log10CFU/ml, the Activity (Cell membrane [4]) was “Active” and the MIC (Escherichia coli) was 16 µg/mL. The Activity (Staphylococcus aureus [5]) was “Active”, the Activity (Staphylococcus aureus [6]) was 4.17 log10CFU/ml and the Activity (Staphylococcus aureus [7]) was “Active”. The MIC (Staphylococcus aureus [8]) was 2 µg/mL, the MIC (Staphylococcus aureus [9]) was 4 µg/mL and the MIC (Enterococcus) was 4 µg/mL. The MIC (Staphylococcus aureus [10]) was 0.5 µg/mL, the Activity (HEK293) was “Non-Toxic” and the MIC (Staphylococcus aureus [11]) was 8 µg/mL. For the same compound, the Time (Staphylococcus aureus [12]) was 2.31 h, the Activity (Staphylococcus aureus [13]) was 2 log10CFU/ml and the Time (Staphylococcus aureus [14]) was 2.75 h. The MIC (Staphylococcus aureus [15]) was 0.125 µg/mL, the survival at 10 mg/kg (Staphylococcus aureus [16]) was 66% and the MIC [17] was 32 µg/mL.
